How the values were obtained:
acute hippocampal slices = experiment: Ex vivo MTT tissue viability test on acute hippocampal slices treated with Aβ oligomers after oxygen-glucose deprivation; assay type: cell-based, Wistar rats; details: 4 h, Aβ oligomers 10 µM alone, untreated slices as control, mean ± SD, N = 4
Text: We have applied a rapid, reliable assay, which utilizes acute hippocampal slices for MTT measurements to test the short-term effect of toxic Aβ oligomers on the viability of the surviving cells in the tissue. Acute hippocampal brain slices can be maintained ex vivo only for a few hours, thus excluding the possibility of studying the long-term effects of neuroprotective compounds. Still, the combination of oxygen-glucose deprivation and treatment with Aβ oligomers makes this assay applicable on a short-term basis, which is otherwise impossible with convenient in vitro methods. The Aβ treatment combined with this short and mild oxygen-glucose deprivation provided a relevant ex vivo model for the aging brain and a standard MTT assay was used for the quantification of toxicity (Table S2). Treatment with Aβ oligomers in 10 µM concentration caused a significant decrease in tissue viability after 4 h (Figure 5, white column, 43.2 ± 1.6% of control). To test the neuroprotective effects of the compounds, slices were treated with Aβ in the presence of equimolar amounts of 1, 3–6, respectively. […]
Toxicity measurements were carried out using freshly prepared slices (N = 2 × 10 for one case) of the brains of 10 ± 1-week-old Wistar rats (4 animals, thickness of the brain slices: 400 µm). […] After the treatment, brain slice viability was measured using a specific MTT assay. […]

[1] = tested on: SH-SY5Y neuroblastoma cells; assay type: cell-based, human; details: 24 h, Aβ oligomers 10 µM alone, mean ± SEM, N = 4–8
Procedure: Real-time cell impedance measurement assay (xCELLigence) was utilized to test the effects of Aβ and the protective effect of the compounds 1, 3–5 on SH-SY5Y neuroblastoma cells. Cells were treated with Aβ oligomers in the concentration of 10 µM either alone or together with compounds 1, 3–5, which were applied in two different concentrations (5 or 10 μM). The cell index was monitored continuously for 48 h. Figure 6 represents the viability readouts after 24 h and 48 h (Table S3). Aβ caused a significant reduction in the viability after 24 h (red column, 85.1 ± 2.6% of control) reflecting the effects of an elongated treatment. […]
Figure 6 Cell viability readouts based on impedance analysis after treatments at different time points: (A) 24 h (B) 48 h. […]
Differentiated SH-SY5Y cells were grown in Dulbecco’s Modified Eagle’s Medium (DMEM) and F12-Ham’s culture medium at a 1:1 ratio supplemented with 10% (v/v) fetal bovine serum (FBS), 1% (v/v) L-glutamine, and 50 µg/mL gentamicin. […] Cells were cultured for 5–7 days and monitored every 15 min until the end of experiments. […] The resulting data was analyzed using real-time cell analyzer software (RTCA, Roche, Basel, Switzerland) and exported to Excel.

In the case of “Aβ oligomers: oligomers of amyloid β (1–42) prepared from Ser26 depsipeptide iso-Aβ (1–42)”, the “tissue viability, Aβ oligomers alone” value (acute hippocampal slices) is reported as 43.2 ± 1.6 % of control and the “viability, Aβ alone” value [1] is reported as 85.1 ± 2.6 % of control.

Source: article PMC6222781, “Structural Optimization of Foldamer-Dendrimer Conjugates as Multivalent Agents against the Toxic Effects of Amyloid Beta Oligomers” (Molecules : A Journal of Synthetic Chemistry and Natural …, 2018)
